The values that follow come from publication PMC4930906 (The Korean Journal of Physiology & Pharmacology : Official …, 2016).

Each structure is given as a SMILES string.

The target in one assay is T1, TREK-2 (Rattus norvegicus, UniProt Q9JIS4).
T1 sequence (Q9JIS4 1-538): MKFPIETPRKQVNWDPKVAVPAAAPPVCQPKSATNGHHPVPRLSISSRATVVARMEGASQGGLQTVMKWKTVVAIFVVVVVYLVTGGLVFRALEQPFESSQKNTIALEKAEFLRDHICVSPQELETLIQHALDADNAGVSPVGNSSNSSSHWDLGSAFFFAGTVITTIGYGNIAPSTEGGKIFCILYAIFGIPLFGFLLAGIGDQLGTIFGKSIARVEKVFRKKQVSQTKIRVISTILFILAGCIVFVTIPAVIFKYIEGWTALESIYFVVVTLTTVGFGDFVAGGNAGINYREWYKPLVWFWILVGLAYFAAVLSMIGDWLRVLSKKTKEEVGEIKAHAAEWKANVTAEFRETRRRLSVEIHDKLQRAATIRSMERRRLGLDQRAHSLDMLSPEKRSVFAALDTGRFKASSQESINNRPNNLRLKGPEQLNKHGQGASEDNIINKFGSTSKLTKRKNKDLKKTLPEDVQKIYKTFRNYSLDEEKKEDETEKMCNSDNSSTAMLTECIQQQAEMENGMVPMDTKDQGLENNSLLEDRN
The assay can be described thus: whole-cell patch clamp, HEK293, voltage ramp, current at +[…] mV. It counts as cell-based.

For the next assay, the target named is T2, TRESK (Mus musculus, UniProt Q6VV64).
T2 sequence (Q6VV64 1-394): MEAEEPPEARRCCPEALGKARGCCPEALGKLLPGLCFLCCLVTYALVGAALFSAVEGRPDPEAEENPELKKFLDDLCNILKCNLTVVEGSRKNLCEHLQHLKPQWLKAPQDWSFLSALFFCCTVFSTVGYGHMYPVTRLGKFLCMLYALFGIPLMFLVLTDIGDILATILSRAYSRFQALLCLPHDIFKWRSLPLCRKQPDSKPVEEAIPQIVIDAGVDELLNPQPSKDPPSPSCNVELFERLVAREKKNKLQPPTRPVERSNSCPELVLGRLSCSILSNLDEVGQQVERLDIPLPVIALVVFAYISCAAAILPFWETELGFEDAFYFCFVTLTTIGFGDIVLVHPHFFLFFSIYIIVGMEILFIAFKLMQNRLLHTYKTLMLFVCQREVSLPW
The description is as above. It counts as cell-based.

For `CN(C)CCC[C@@]1(c2ccc(F)cc2)OCc2cc(C#N)ccc21` [escitalopram], the IC50 (as a rule, the concentration that gives 50% inhibition) at TREK-2 was 102 ± 9 µM; against TRESK it was 49 ± 7 µM.

With `CN(C)CCCC1(c2ccc(F)cc2)OCc2cc(C#N)ccc21` (stereo not shown) [citalopram], the IC50 came out at 110 ± 9 µM on TREK-2 and 168 ± 11 µM against TRESK.

As for `CC(NC(C)(C)C)C(=O)c1cccc(Cl)c1` (stereo not shown) [bupropion], the IC50 against TRESK came to 160 ± 17 µM.

As to `CC(=O)Nc1ccc(O)cc1` [acetaminophen], the IC50 at TRESK was 220 ± 26 µM.

As for `CN(C)CCC=C1c2ccccc2CCc2ccccc21` [amitriptyline], the IC50 on TREK-2 was found to be 16 ± 4 µM; against TRESK it was 26 ± 5 µM.

On to `COc1ccc2cc(CCC(C)=O)ccc2c1` [nabumetone], for which the IC50 at TRESK amounted to 557 ± 35 µM.

For the molecule `CC(C)Cc1ccc(C(C)C(=O)O)cc1` (stereo not shown) [ibuprofen], on TRESK, it took 889 ± 10 µM to reach half-maximal inhibition (IC50).
